From patent US20180362993A1, “ELICITOR-DERIVED PEPTIDES AND USE THEREOF” (Plant Health Care, Inc., priority 2017, published 2018)
“And” between values parts separate entries of the source, which are not always exact repeats. Equal values may be shown once. Marks after values point to notes of the source that are not given here.

Assays:
Format in all cases: in vivo
soy [1] = experiment: Drought resistance in soy (foliar spray); conditions: vs untreated control
Experimental: The effectiveness of peptide treatment in reducing drought stress was assessed in […]. 3.5 inch pots were filled with Sunshine #1 soil (SunGro Horticulture), fertilized with a 20-10-20 mixture. The soil was soaked and drained overnight. Seeds (soy, manually inspected to ensure uniform seed size) were planted at a depth of half inch for germination. Plants were grown in a greenhouse under 16 hour light days at >70° F. and 8 hour dark nights at >65° F. Prior to drought conditions, the plants were well-watered.
When the plants reached the growth stage when first trifoliate expanded, plants were culled to achieve a uniform height (abnormally large and small plants were removed). Plants were then randomly assigned to control (spray without peptide) or treatment (spray with peptide) groups and heights were measured. Peptide was made up in a solution of 0.2 μg/ml or 2μg/ml in distilled water+0.04% Tween-20, and applied as a fine mist from a spray bottle until the solution drips from the leaves. After the peptide solutions were dried, the plants were again randomized in a randomized complete block design. Cyclic drought stress was initiated after the peptide treatment. Plants were subjected to at least three drought cycles of drought stress (3-5 days of withholding water and 1 day irrigated with saturating amount of water) before harvesting.
(§1) The drought test phase ended after 2-3 weeks. At that time, the plant height was again measured and the growth rate was calculated as the difference between this and the previously-recorded height. The above-ground part portions of the plants were harvested and weighed to obtain fresh weight. The above-ground portion was also dried in an oven at 70° C. for 72 hours to obtain dry weight. All calculations were compared with matched untreated control plants.
The drought testing procedure was carried out in soy using a treatment of P12-2, P13-4, P13-5, P13-7, P13-3, P13-14, P13-2, and P13-15 (SEQ ID NOs: 6, 10, 11, 13, 9, 20, 8, and 21). Asterisks indicate statistical significance by P-value (*: P<0.1 and **: P<0.05)

corn [2] = experiment: Drought resistance in corn (foliar spray); conditions: corn, vs untreated control
Experimental: The effectiveness of peptide treatment in reducing drought stress was assessed in corn. 3.5 inch pots were filled with Sunshine #1 soil (SunGro Horticulture), fertilized with a 20-10-20 mixture. The soil was soaked and drained overnight. Seeds (either corn or soy, manually inspected to ensure uniform seed size) were planted at a depth of 1 inch for germination. Plants were grown in a greenhouse under 16 hour light days at >70° F. and 8 hour dark nights at >65° F. Prior to drought conditions, the plants were well-watered.
When the plants reached the V1 stage, plants were culled to achieve a uniform height (abnormally large and small plants were removed). Plants were then randomly assigned to control (spray without peptide) or treatment (spray with peptide) groups and heights were measured. Peptide was made up in a solution of 0.2 μg/ml or 2μg/ml in distilled water+0.01% Tween-20, and applied as a fine mist from a spray bottle until the solution drips from the leaves. After the peptide solutions were dried, the plants were again randomized in a randomized complete block design. Drought stress was initiated after the peptide treatment. This was caused by maintaining the water level at 25-50% of the maximum capacity for water (capacity was decided as the weight of the pot filled with saturated soil minus the weight of the filled pot prior to adding water).
as §1
The drought testing procedure was carried out in corn using a treatment of P12, P13-10, P13-11, P13-12, P13-14, P13-4, and P13-15 (SEQ ID NOs: 5, 16, 17, 18, 20, 10, and 21). Asterisks indicate statistical significance by P-value (*: P<0.1 and **: P<0.05)

corn [3] = experiment: Drought resistance in seed-coated corn; conditions: for Drought tolerance activity in corn, result in words: corn seed treatment; for % Change Dry Weight / % Change Fresh Weight: vs mock
Experimental: The effectiveness of peptide treatment in reducing the effects of drought stress was assessed in corn using a seed treatment strategy. This strategy largely mirrors example 2, except that the seeds were coated with a peptide formulation rather than a foliar spray application.
Seeds were first sieved using mesh screens to a uniform size (21-23/64 inches). The seeds were then coated with a mixture of peptide, Unicoat™ seed coat polymer, and a minimal volume of water in a Hege 11 Liquid Seed Treater (Wintersteiger) according to manufacturer recommendations. Seeds were coated with one of the following: (i) 0.12 μg peptide/seed, (ii) […], or (iii) a ‘mock’ treatment that included no peptide. The amount of peptide per seed assumes complete transfer of the peptide to seed surfaces in the seed coating chamber. Losses during coating were not considered.
(§2) 3.5 inch pots were filled (approximately 0.2 L per pot) with Sunshine #1 mix (SunGro Horticulture), fertilized with 14-14-14 N,P,K Osmocote (Everris), and mixed for 20 minutes using a soil mixer M-5. Seeds were planted at a depth of 0.5 inch for germination. The pots were immediately irrigated by submergence then drained after about an hour. For each treatment group, 24 replicate seeds were planted. Plants were grown in a greenhouse under 16 hour light days at ˜75° F. and 8 hour dark nights at ˜65° F. Prior to drought conditions, the plants were well-watered.
Three days after planting, the plants were randomized using a complete block design and subjected to a cyclic drought stress. Drought stress was imposed by withholding water for 2-3 days until the majority of plants were under medium to severe water stress. The severity of the stress was determined by the weight of the pot and visual determination of leaf curling. Once drought stress was attained, the pots were watered to full saturation. Full Saturation (100% pot capacity) is defined as the weight of the pot filled with water-saturated soil minus the weight of the filled pot prior to adding water. Drought stress was imposed for a total of 18 days.
At the end of the experiment (18 days after initiation of drought stress), the plant was then harvested for fresh and dry weights. Individual plants were cut near the soil surface and weighed immediately (fresh weight). The plants were then placed into labeled brown paper bags and dried in a 70° C. oven for 72 hours. A dry weight was then obtained.
The following calculation was performed on the collected data: Fresh weight at harvest and dry weight at harvest for the plants grown from peptide-treated seeds were expressed as a % change relative to the ‘mock’ treated plants.

soy [4] = experiment: Drought resistance in seed-treated soy; conditions: for % Change Dry Weight / % Change Fresh Weight: vs mock; for Result in the seed treated drought study for soy, in words: soy seed treatment
Experimental: The effectiveness of peptide treatment in reducing drought stress was assessed in soy using a seed treatment strategy. This strategy largely mirrors examples 3 and 4.
Seeds were first sieved using mesh screens to a uniform size (14-17 mesh). The seeds were then coated with a mixture of peptide and Unicoat™ seed coat polymer in a Hege 11 Liquid Seed Treater (Wintersteiger) according to manufacturer recommendations. […]
as §2
Seven days after germination the heights of the plants were measured. This was determined as the distance between the soil surface and the shoot apical meristems (buds). The plants were randomized using a complete block design and subjected to a cyclic drought stress. Drought stress was imposed by withholding water for 3-4 days until the majority of plants were under medium to severe water stress. The severity of the stress was determined by the weight of the pot and visual determination of loss of turgor in the leaves (drooping). Once drought stress was attained, the pots were watered to full saturation. Full Saturation (100% pot capacity) is defined as the weight of the pot filled with water-saturated soil minus the weight of the filled pot prior to adding water. Drought stress was imposed for a total of 18 days.
At the end of the experiment (18 days after initiation of drought stress), the plant above the soil surface was then harvested for fresh and dry weights. Individual plants were cut near the soil surface and weighed immediately (fresh weight). The plants were then placed into labeled brown paper bags and dried in a 70° C. oven for 72 hours. A dry weight was then obtained. The following calculation was performed on the collected data: Fresh weight at harvest, and dry weight at harvest for the peptide-treated plants were expressed as a % change relative to the ‘mock’ treated plants.

[5] = corn seed treatment 0.12 μg/seed
[6] = corn seed treatment 1.05 μg/seed

Sequence: GQTSGMSPMEQLMKIFADITQSLFG (P13-15 peptide) [Peptide P13-15]
- Dry Weight Increase (soy [1]; foliar spray 2 μg/ml): 2.07%
- Fresh Weight Increase (soy [1]; foliar spray 2 μg/ml): 5.38* %
- Dry Weight Increase (corn [2]; foliar spray 0.2 μg/ml): 6.21%
- Fresh Weight Increase (corn [2]; foliar spray 0.2 μg/ml): 2.92%

Sequence: LEELEELLEIFEEIEEELFEE (P13-7 peptide) [Peptide P13-7]
- Dry Weight Increase (soy [1]; foliar spray 2 μg/ml): 4.50* %
- Fresh Weight Increase (soy [1]; foliar spray 2 μg/ml): 5.80* %
- Drought tolerance activity in corn, result in words (corn [3]): preservation of activity
- % Change Dry Weight (corn [3]; [5]): 4.77** %
- % Change Fresh Weight (corn [3]; [5]): 5.6* %

Sequence: TSGLSPLEQLLKIFADITQSLFG (P13-2 peptide) [Peptide P13-2]
- Dry Weight Increase (soy [1]; foliar spray 0.2 μg/ml): 8.70** %
- Fresh Weight Increase (soy [1]; foliar spray 0.2 μg/ml): 7.84** %
- Dry Weight Increase (soy [1]; foliar spray 2 μg/ml): 14.54** %
- Fresh Weight Increase (soy [1]; foliar spray 2 μg/ml): 15.56** %
- % Change Dry Weight (corn [3]; [6]): 0.38%
- % Change Fresh Weight (corn [3]; [6]): 3.67%

Sequence: LSPLEQLMKIFADITQSLFEEEE (P13-5 peptide) [Peptide P13-5]
- Dry Weight Increase (soy [1]; foliar spray 0.2 μg/ml): 6.93** %
- Fresh Weight Increase (soy [1]; foliar spray 0.2 μg/ml): 12.23** %
- Dry Weight Increase (soy [1]; foliar spray 2 μg/ml): 4.36%
- Fresh Weight Increase (soy [1]; foliar spray 2 μg/ml): 9.73** %
- Drought tolerance activity in corn, result in words (corn [3]): supported corn drought tolerance
- % Change Dry Weight (corn [3]; [6]): 5.07* %
- % Change Fresh Weight (corn [3]; [6]): 5.66** %

Sequence: AGQTSGMSPMEQLLKIFADITQSLFGDQDG (P13-39 peptide) [Peptide P13-39]
- % Change Dry Weight (soy [4]; soy seed treatment 0.1 μg/seed): 3.26%
- % Change Fresh Weight (soy [4]; soy seed treatment 0.1 μg/seed): 3.22%
- % Change Dry Weight (corn [3]; [6]): 3.10%
- % Change Fresh Weight (corn [3]; [6]): 5.09** %

Sequence: GDLQGSGASTQDTSGMSPMEQLMKIFADITQSLFGDQDG (P12-2 peptide) [Peptide P12-2]
- Dry Weight Increase (soy [1]; foliar spray 2 μg/ml): 3.55%
- Fresh Weight Increase (soy [1]; foliar spray 2 μg/ml): 7.83** %

Sequence: MEEMEQLMKIFEEIEQELFEEEE (P13-37 peptide) [Peptide P13-37]
- % Change Dry Weight (soy [4]; soy seed treatment 0.9 μg/seed): 0.48%
- % Change Fresh Weight (soy [4]; soy seed treatment 0.9 μg/seed): 0.58%
- Drought tolerance activity in corn, result in words (corn [3]): preservation of activity
- % Change Dry Weight (corn [3]; [6]): 5.53** %
- % Change Fresh Weight (corn [3]; [6]): 7.67** %

Sequence: SEQEEEMEEMEQLMEIFEEIEQELFE (P13-28 peptide) [Peptide P13-28]
- Result in the seed treated drought study for soy, in words (soy [4]): significant results
- % Change Dry Weight (soy [4]; soy seed treatment 0.9 μg/seed): 10.35** %
- % Change Fresh Weight (soy [4]; soy seed treatment 0.9 μg/seed): 14.35** %
- Drought tolerance activity in corn, result in words (corn [3]): preservation of activity
- % Change Dry Weight (corn [3]; [5]): 8.52** %
- % Change Fresh Weight (corn [3]; [5]): 9.99** %
- % Change Dry Weight (corn [3]; [6]): 6.04** %
- % Change Fresh Weight (corn [3]; [6]): 8.18** %

Sequence: SEEMSPMEQLMKIFADITQSLFEE (P13-36 peptide) [Peptide P13-36]
- % Change Dry Weight (soy [4]; soy seed treatment 0.9 μg/seed): −4.78%
- % Change Fresh Weight (soy [4]; soy seed treatment 0.9 μg/seed): 1.46%
- Drought tolerance activity in corn, result in words (corn [3]): supported corn drought tolerance
- % Change Dry Weight (corn [3]; [5]): 5.93** %
- % Change Fresh Weight (corn [3]; [5]): 10.60** %
- % Change Dry Weight (corn [3]; [6]): 7.95** %
- % Change Fresh Weight (corn [3]; [6]): 12.38** %

Sequence: TSGLSPLEQLLKIFAEITQSLFG (P13-3 peptide) [Peptide P13-3]
- Dry Weight Increase (soy [1]; foliar spray 0.2 μg/ml): 8.47** %
- Fresh Weight Increase (soy [1]; foliar spray 0.2 μg/ml): 11.43** %
- Dry Weight Increase (soy [1]; foliar spray 2 μg/ml): 2.54% and 6.07** %
- Fresh Weight Increase (soy [1]; foliar spray 2 μg/ml): 5.90** % and 13.61** %
- % Change Dry Weight (corn [3]; [5]): 2.81%
- % Change Fresh Weight (corn [3]; [5]): 1.49%

Sequence: MSPMEQLMKIFADITQSLFEEEE (P13-4 peptide) [Peptide P13-4]
- Dry Weight Increase (soy [1]; foliar spray 0.2 μg/ml): 4.45* %
- Fresh Weight Increase (soy [1]; foliar spray 0.2 μg/ml): 7.75** %
- Dry Weight Increase (corn [2]; foliar spray 2 μg/ml): 0.06%
- Fresh Weight Increase (corn [2]; foliar spray 2 μg/ml): −2.77%

Sequence: AGQTSGMSPLEQLMKIFADITQSLFGDQDG (P13-40 peptide) [Peptide P13-40]
- Result in the seed treated drought study for soy, in words (soy [4]): significant results
- % Change Dry Weight (soy [4]; soy seed treatment 0.1 μg/seed): 10.27** %
- % Change Fresh Weight (soy [4]; soy seed treatment 0.1 μg/seed): 12.53** %
- % Change Dry Weight (corn [3]; [6]): 0.76%
- % Change Fresh Weight (corn [3]; [6]): 5.86* %

Sequence: AGQTSGMSPMEQLMKIFADITESLFGDQDG (P13-43 peptide) [Peptide P13-43]
- % Change Dry Weight (soy [4]; soy seed treatment 0.1 μg/seed): 2.37%
- % Change Fresh Weight (soy [4]; soy seed treatment 0.1 μg/seed): 1.96%
- % Change Dry Weight (corn [3]; [5]): −0.75%
- % Change Fresh Weight (corn [3]; [5]): 6.2* %
- % Change Dry Weight (corn [3]; [6]): 6.73** %
- % Change Fresh Weight (corn [3]; [6]): 5.04%

Sequence: AGQTSGMSPMEQLMEIFADITQSLFGDQDGK (P13-22 peptide) [Peptide P13-22]
- % Change Dry Weight (soy [4]; soy seed treatment 0.1 μg/seed): 4.36%
- % Change Fresh Weight (soy [4]; soy seed treatment 0.1 μg/seed): 4.91%
- % Change Dry Weight (corn [3]; [6]): 1.66%
- % Change Fresh Weight (corn [3]; [6]): 3.41%
